# ± gives the expanded uncertainty stated by the source.
# Experiments:
# [1] = excess molar enthalpy (molar enthalpy of mixing); xn = mol fraction of the nth substance listed; details: 298.15 K, 101 kPa, Liquid, Calvet calorimetry
# [2] = xn = mol fraction of the nth substance listed; details: 298.15 K, 101 kPa, Liquid, Vibrating tube method
structure (smiles),measurement,setting,value
CCCOC(=O)CCC [propyl butanoate] + ClCCCCCCl,excess molar enthalpy,[1]; x1 = 0.0559,-0.00311 ± 0.000239 kcal/mol
same,excess molar enthalpy,[1]; x1 = 0.1285,-0.0086 ± 0.000239 kcal/mol
same,excess molar enthalpy,[1]; x1 = 0.2091,-0.0167 ± 0.000478 kcal/mol
same,excess molar enthalpy,[1]; x1 = 0.2908,-0.0258 ± 0.000717 kcal/mol
same,excess molar enthalpy,[1]; x1 = 0.3699,-0.0351 ± 0.000717 kcal/mol
same,excess molar enthalpy,[1]; x1 = 0.4417,-0.0449 ± 0.000956 kcal/mol
same,excess molar enthalpy,[1]; x1 = 0.4998,-0.0504 ± 0.0012 kcal/mol
same,excess molar enthalpy,[1]; x1 = 0.553,-0.0526 ± 0.0012 kcal/mol
same,excess molar enthalpy,[1]; x1 = 0.5757,-0.0523 ± 0.0012 kcal/mol
same,excess molar enthalpy,[1]; x1 = 0.6397,-0.0497 ± 0.0012 kcal/mol
same,excess molar enthalpy,[1]; x1 = 0.71,-0.0445 ± 0.000956 kcal/mol
same,excess molar enthalpy,[1]; x1 = 0.7828,-0.0368 ± 0.000956 kcal/mol
same,excess molar enthalpy,[1]; x1 = 0.8561,-0.0265 ± 0.000717 kcal/mol
same,excess molar enthalpy,[1]; x1 = 0.9304,-0.0146 ± 0.000478 kcal/mol
same,mass density,[2]; x1 = 0.0527,1081.35 ± 5.8 kg/m3
same,mass density,[2]; x1 = 0.1057,1067.82 ± 5.1 kg/m3
same,mass density,[2]; x1 = 0.1578,1054.69 ± 4.5 kg/m3
same,mass density,[2]; x1 = 0.2095,1041.82 ± 4 kg/m3
same,mass density,[2]; x1 = 0.2663,1027.99 ± 3.5 kg/m3
same,mass density,[2]; x1 = 0.3782,1001.4 ± 2.6 kg/m3
same,mass density,[2]; x1 = 0.4944,974.66 ± 1.8 kg/m3
same,mass density,[2]; x1 = 0.6144,947.96 ± 1.2 kg/m3
same,mass density,[2]; x1 = 0.7409,920.76 ± 0.77 kg/m3
same,mass density,[2]; x1 = 0.804,907.58 ± 0.59 kg/m3
same,mass density,[2]; x1 = 0.8678,894.43 ± 0.45 kg/m3
same,mass density,[2]; x1 = 0.9363,880.61 ± 0.32 kg/m3
same,mass density,[2]; x1 = 1,867.9 ± 0.23 kg/m3
"ClCCCCCCl [1,5-dichloropentane] + CCCOC=O",excess molar enthalpy,[1]; x2 = 0.0772,0.0148 ± 0.000478 kcal/mol
same,excess molar enthalpy,[1]; x2 = 0.1733,0.0261 ± 0.000717 kcal/mol
same,excess molar enthalpy,[1]; x2 = 0.2797,0.0335 ± 0.000717 kcal/mol
same,excess molar enthalpy,[1]; x2 = 0.3611,0.0349 ± 0.000717 kcal/mol
same,excess molar enthalpy,[1]; x2 = 0.4265,0.0339 ± 0.000717 kcal/mol
same,excess molar enthalpy,[1]; x2 = 0.48,0.0323 ± 0.000717 kcal/mol
same,excess molar enthalpy,[1]; x2 = 0.5257,0.0301 ± 0.000717 kcal/mol
same,excess molar enthalpy,[1]; x2 = 0.5865,0.0263 ± 0.000717 kcal/mol
same,excess molar enthalpy,[1]; x2 = 0.6476,0.0215 ± 0.000478 kcal/mol
same,excess molar enthalpy,[1]; x2 = 0.7088,0.0163 ± 0.000478 kcal/mol
same,excess molar enthalpy,[1]; x2 = 0.7665,0.0115 ± 0.000478 kcal/mol
same,excess molar enthalpy,[1]; x2 = 0.8266,0.00717 ± 0.000239 kcal/mol
same,excess molar enthalpy,[1]; x2 = 0.8827,0.00406 ± 0.000239 kcal/mol
same,excess molar enthalpy,[1]; x2 = 0.9526,0.0012 ± 0.000239 kcal/mol
same,mass density,[2]; x2 = 0.1431,1073.06 ± 5.5 kg/m3
same,mass density,[2]; x2 = 0.215,1061.43 ± 5.1 kg/m3
same,mass density,[2]; x2 = 0.2831,1050.01 ± 4.7 kg/m3
same,mass density,[2]; x2 = 0.3476,1038.81 ± 4.3 kg/m3
same,mass density,[2]; x2 = 0.4101,1027.62 ± 3.9 kg/m3
same,mass density,[2]; x2 = 0.4756,1015.48 ± 3.6 kg/m3
same,mass density,[2]; x2 = 0.5351,1004.04 ± 3.3 kg/m3
same,mass density,[2]; x2 = 0.65,980.9 ± 2.8 kg/m3
same,mass density,[2]; x2 = 0.7551,958.34 ± 2.4 kg/m3
same,mass density,[2]; x2 = 0.8569,935.09 ± 2 kg/m3
same,mass density,[2]; x2 = 0.9046,923.69 ± 1.9 kg/m3
same,mass density,[2]; x2 = 0.953,911.75 ± 1.7 kg/m3
CCCOC(=O)CC [propyl propanoate] + ClCCCCCCl,mass density,[2]; x1 = 1,875.61 ± 0.23 kg/m3
"ClCCCCl [1,3-dichloropropane] + CCCOC(=O)CC",excess molar enthalpy,[1]; x2 = 0.0469,-0.00932 ± 0.000239 kcal/mol
same,excess molar enthalpy,[1]; x2 = 0.1103,-0.0208 ± 0.000478 kcal/mol
same,excess molar enthalpy,[1]; x2 = 0.1814,-0.0361 ± 0.000956 kcal/mol
same,excess molar enthalpy,[1]; x2 = 0.2562,-0.0545 ± 0.0012 kcal/mol
same,excess molar enthalpy,[1]; x2 = 0.3312,-0.0691 ± 0.00143 kcal/mol
same,excess molar enthalpy,[1]; x2 = 0.4023,-0.0803 ± 0.00167 kcal/mol
same,excess molar enthalpy,[1]; x2 = 0.4661,-0.0882 ± 0.00191 kcal/mol
same,excess molar enthalpy,[1]; x2 = 0.528,-0.0927 ± 0.00215 kcal/mol
same,excess molar enthalpy,[1]; x2 = 0.6046,-0.0894 ± 0.00191 kcal/mol
same,excess molar enthalpy,[1]; x2 = 0.706,-0.0793 ± 0.00167 kcal/mol
same,excess molar enthalpy,[1]; x2 = 0.816,-0.0576 ± 0.0012 kcal/mol
same,excess molar enthalpy,[1]; x2 = 0.9152,-0.0318 ± 0.000717 kcal/mol
same,mass density,[2]; x2 = 0.0456,1160.2 ± 6.8 kg/m3
same,mass density,[2]; x2 = 0.09,1142.38 ± 6.1 kg/m3
same,mass density,[2]; x2 = 0.1357,1124.66 ± 5.4 kg/m3
same,mass density,[2]; x2 = 0.1827,1107.03 ± 4.8 kg/m3
same,mass density,[2]; x2 = 0.2323,1089.1 ± 4.2 kg/m3
same,mass density,[2]; x2 = 0.2857,1070.52 ± 3.6 kg/m3
same,mass density,[2]; x2 = 0.3377,1053.06 ± 3.1 kg/m3
same,mass density,[2]; x2 = 0.3926,1035.32 ± 2.7 kg/m3
same,mass density,[2]; x2 = 0.5112,999.15 ± 1.8 kg/m3
same,mass density,[2]; x2 = 0.5749,980.88 ± 1.5 kg/m3
same,mass density,[2]; x2 = 0.6382,963.43 ± 1.2 kg/m3
same,mass density,[2]; x2 = 0.7097,944.54 ± 0.9 kg/m3
same,mass density,[2]; x2 = 0.7804,926.67 ± 0.67 kg/m3
same,mass density,[2]; x2 = 0.8459,910.76 ± 0.5 kg/m3
same,mass density,[2]; x2 = 0.9232,892.71 ± 0.35 kg/m3
CCCOC(=O)CC [propyl propanoate] + ClCCCCCl,mass density,[2]; x1 = 1,875.61 ± 0.23 kg/m3
CCCOC(=O)CCC [propyl butanoate] + ClCCCl,excess molar enthalpy,[1]; x1 = 0.0365,-0.00837 ± 0.000239 kcal/mol
same,excess molar enthalpy,[1]; x1 = 0.0999,-0.0229 ± 0.000717 kcal/mol
same,excess molar enthalpy,[1]; x1 = 0.1556,-0.0363 ± 0.000956 kcal/mol
same,excess molar enthalpy,[1]; x1 = 0.2176,-0.0526 ± 0.0012 kcal/mol
same,excess molar enthalpy,[1]; x1 = 0.281,-0.0684 ± 0.00143 kcal/mol
same,excess molar enthalpy,[1]; x1 = 0.343,-0.0851 ± 0.00191 kcal/mol
same,excess molar enthalpy,[1]; x1 = 0.3848,-0.0951 ± 0.00215 kcal/mol
same,excess molar enthalpy,[1]; x1 = 0.4055,-0.098 ± 0.00215 kcal/mol
same,excess molar enthalpy,[1]; x1 = 0.4534,-0.106 ± 0.00239 kcal/mol
same,excess molar enthalpy,[1]; x1 = 0.5266,-0.109 ± 0.00239 kcal/mol
same,excess molar enthalpy,[1]; x1 = 0.6369,-0.0997 ± 0.00215 kcal/mol
same,excess molar enthalpy,[1]; x1 = 0.7616,-0.0746 ± 0.00167 kcal/mol
same,excess molar enthalpy,[1]; x1 = 0.8961,-0.0399 ± 0.000956 kcal/mol
same,mass density,[2]; x1 = 0.0329,1222.22 ± 7.7 kg/m3
same,mass density,[2]; x1 = 0.065,1200.67 ± 7 kg/m3
same,mass density,[2]; x1 = 0.1029,1176.79 ± 6.3 kg/m3
same,mass density,[2]; x1 = 0.1385,1155.7 ± 5.7 kg/m3
same,mass density,[2]; x1 = 0.1815,1132.09 ± 5 kg/m3
same,mass density,[2]; x1 = 0.2225,1110.75 ± 4.5 kg/m3
same,mass density,[2]; x1 = 0.2703,1087.77 ± 3.9 kg/m3
same,mass density,[2]; x1 = 0.3191,1065.93 ± 3.4 kg/m3
same,mass density,[2]; x1 = 0.3743,1043.05 ± 2.8 kg/m3
same,mass density,[2]; x1 = 0.4285,1022.26 ± 2.4 kg/m3
same,mass density,[2]; x1 = 0.4904,1000.19 ± 1.9 kg/m3
same,mass density,[2]; x1 = 0.556,978.67 ± 1.6 kg/m3
same,mass density,[2]; x1 = 0.628,956.91 ± 1.2 kg/m3
same,mass density,[2]; x1 = 0.7087,934.51 ± 0.89 kg/m3
same,mass density,[2]; x1 = 0.7989,911.8 ± 0.61 kg/m3
same,mass density,[2]; x1 = 0.8938,890.06 ± 0.4 kg/m3
same,mass density,[2]; x1 = 1,867.9 ± 0.23 kg/m3
CCCOC(C)=O [propyl ethanoate] + ClCCCl,mass density,[2]; x1 = 1,882.08 ± 0.23 kg/m3
CCCOC(C)=O [propyl ethanoate] + ClCCCCl,mass density,[2]; x1 = 1,882.08 ± 0.23 kg/m3
CCCOC(=O)CC [propyl propanoate] + ClCCCCl,mass density,[2]; x1 = 1,875.61 ± 0.23 kg/m3
